{
  "source": "patent US20130324609A1",
  "about": "“DEPRESSION DISORDER THERAPEUTICS WITH CREATINE ANALOGS” (UNIVERSITY OF UTAH RESEARCH FOUNDATION, priority 2010, published 2013)",
  "assay_type_in_all_cases": "in vivo, human",
  "key": {"[1]": {"system": "females between 13-18 years of age with a primary diagnosis of MDD, fluoxetine-treated (SSRI-resistant depression)", "assay": "Open-label adjunctive creatine study: Children's Depression Rating Scale-Revised (CDRS-R) raw score", "description": "Approval for the study was obtained from the University of Utah Institutional Review Board (IRB). Informed consent consisted of written parental permission as well as written assent from participants. The study was conducted under U.S. Food and Drug Administration (FDA) Investigational New Drug Application #104,586. An external Data Safety and Monitoring Board vested with authority to halt the trial was established, and the study was conducted in accordance of the principles of Good Clinical Practice (GCP).\nParticipants were recruited through clinician referrals and IRB-approved advertising. Consecutive patients who met inclusion criteria were enrolled. Inclusion criteria included the following: females between 13-18 years of age with a primary diagnosis of MDD and depressive symptoms persisting for >2 weeks at baseline; fluoxetine treatment for >8 weeks with >4 weeks at a dose of >40 mg/day (if doses higher than 20 mg/day were not tolerated, participants could meet inclusion criteria by taking fluoxetine 20 mg/day for >8 weeks); and a current Children's Depression Rating Scale-Revised (CDRS-R) (Poznanski and Mokros 1996) raw score>40. Consistent with the preliminary nature of the study, few exclusion criteria were applied. For example, no restrictions were placed on concomitant medications or psychotherapy. The study's exclusion criteria were: pre-existing renal disease, proteinuria or microalbuminuria at baseline; contraindication to magnetic resonance scanning (e.g. ferromagnetic implants or claustrophobia); primary diagnosis other than MDD; active psychotic symptoms; high risk for suicidal behavior; positive pregnancy test; active alcohol or drug addiction; known or suspected mental retardation; and unstable medical condition.\n(§1) Diagnoses were established with the Schedule for Affective Disorders and Schizophrenia for School-Age Children-Present and Lifetime Version (K-SADS-PL) (Kaufman et al. 1997). A complete blood count, metabolic panel, lipid profile, thyroid stimulating hormone, urinalysis and urine microalbumin were obtained to establish that participants were in generally good health, and to rule out the presence of undiagnosed medical conditions. The laboratory studies were repeated at the conclusion of treatment, to prospectively identify any abnormalities associated with creatine administration.\nParticipants with depression were treated with fixed-dose Creapure® brand of creatine monohydrate (AlzChem LLC, Trostberg, Germany) 4 grams by mouth daily for 8 weeks. At each study visit, the following rating scales were administered: the CDRS ? R, the Clinical Global Impressions scale (Guy 1976) and the Columbia-Suicide Severity Rating Scale (C-SSRS) (Posner 2010). Adverse events were recorded at each study visit. Change in CDRS-R raw score was the primary outcome measure, with C-SSRS results and treatment-emergent adverse events serving as secondary clinical outcomes. ^31P-MRS brain scans were acquired with a Siemens 3 Tesla MRS scanner (Siemens AG, Munich, Germany) that is FDA-approved for clinical use. Two dimensional chemical shift imaging free induction decay (2D CSI FID) pulse sequence with an Fourier voxel resolution of 25×25×25 mm3, Field of View (FOV)=200×200×25 mm3, TR/TE=3000/2.3 ms, vector size=1024, bandwidth=2500 Hz, data collection time=11.2 minutes and the number of averages=24 was implemented to collect 2D CSI FID data using a ^31P/1H double-tuned volume head coil (Clinical MR Solutions LLC, Brookfield, Wis., USA). The proton channel was used for localization, high-resolution anatomic image acquisition and shimming Shimming was performed over the excited volume. 3D high-resolution images used for localization of CSI data were collected using inversion recovery magnetization prepared rapid gradient echo (MP-RAGE) pulse sequence with isotropic 1 mm3 resolution. […]"}, "[2]": {"system": "brain phosphorus metabolites (PCr, b-NTP, pH)", "assay": "31P-MRS brain scans of phosphorus metabolites at baseline and after 8 weeks of creatine", "description": "Healthy control female adolescents were recruited for comparison ^31P-MRS scans through IRB-approved advertising. Following informed consent, the K-SADS-PL and CDRS-R were administered to establish the absence of psychiatric disorder(s) or depressive symptoms.\n(§2) Participants with depression were treated with fixed-dose Creapure® brand of creatine monohydrate (AlzChem LLC, Trostberg, Germany) 4 grams by mouth daily for 8 weeks. At each study visit, the following rating scales were administered: the CDRS ? R, the Clinical Global Impressions scale (Guy 1976) and the Columbia-Suicide Severity Rating Scale (C-SSRS) (Posner 2010). Adverse events were recorded at each study visit. Change in CDRS-R raw score was the primary outcome measure, with C-SSRS results and treatment-emergent adverse events serving as secondary clinical outcomes. ^31P-MRS brain scans were acquired with a Siemens 3 Tesla MRS scanner (Siemens AG, Munich, Germany) that is FDA-approved for clinical use. Two dimensional chemical shift imaging free induction decay (2D CSI FID) pulse sequence with an Fourier voxel resolution of 25×25×25 mm3, Field of View (FOV)=200×200×25 mm3, TR/TE=3000/2.3 ms, vector size=1024, bandwidth=2500 Hz, data collection time=11.2 minutes and the number of averages=24 was implemented to collect 2D CSI FID data using a ^31P/1H double-tuned volume head coil (Clinical MR Solutions LLC, Brookfield, Wis., USA). The proton channel was used for localization, high-resolution anatomic image acquisition and shimming Shimming was performed over the excited volume. 3D high-resolution images used for localization of CSI data were collected using inversion recovery magnetization prepared rapid gradient echo (MP-RAGE) pulse sequence with isotropic 1 mm3 resolution. The imaging parameters were as follows: TR/TE=2000/3.37 ms, FOV=256×192×144 mm3, and matrix size=256×1 92×144, for a total acquisition time of 4.8 minutes. Participants were instructed during the informed consent process, and again before entering the scanner, that they could discontinue scanning at any point if they experienced discomfort (e.g. claustrophobic anxiety). Non-study personnel trained in research patient advocacy attended each scanning session. The study protocol included two ^31P-MRS scans: one at baseline and a follow-up scan 8 weeks later.\n^31P MRS data were analyzed using jMRUI software (jMRUI version 4.0, European Community). A Hamming filter was applied to reduce signal contamination from neighbouring voxels before performing 2D Fast Fourier Transform (FFT) on the raw data. Nine voxel signals from a slice with a thickness of 25 mm located at the corpus callosum, anterior commissure and posterior commissure were summed after 2D FFT. Each voxel FID was apodized with a 10 Hz exponential line broadening before zero filling and FFT. The zero-order and first-order phase correction was performed in all spectrums.\nWe calculated the signal amplitudes for individual metabolites using AMARES (Advanced Method for Accurate, Robust and Efficient Spectral fitting of MRS data), which is a non-linear, time domain fitting algorithm within the jMRUI software application. The estimated amplitudes of phosphorus metabolites are reported with respect to the total ^31P or beta-NTP amplitude within the time domain signals. The ^31P MRS signal amplitude for each metabolite is directly related to the integrated area under the modeled spectrum in the frequency domain.\nThe depressed participants' ^31P-MRS brain scans were performed at baseline (prior to the first dose of creatine) and repeated at the conclusion of treatment. We enrolled and acquired baseline scans from ten healthy female adolescent controls; six agreed to return eight weeks later for a second scan. Statistical analyses were performed using JMP 8 (SAS Inc., Cary, N.C. USA). Because this was an open-label pilot study, all analyses were considered exploratory and no correction for multiple hypothesis testing was applied."}, "[3]": {"assay": "Adverse events, vital signs and laboratory tests during creatine treatment", "text": "as §1, §2\nParticipants' vital signs were recorded at each study visit. […] Although not measured systematically, participant and parent acceptance of creatine as a treatment intervention appeared good, and there were no premature terminations due to concerns about the study drug."}, "[4]": {"system": "suicidality in female adolescents with MDD", "assay": "Columbia-Suicide Severity Rating Scale (C-SSRS) monitoring during creatine treatment", "conditions": "for C-SSRS During Treatment With Creatine (Weeks): monohydrate", "description": "as §2\nOne participant reported no history of suicidal thoughts or behavior, but the others each endorsed significant histories of suicidality, indicating the severity and chronicity of the participants. Three of the participants had attempted suicide between 5 months and 5 years prior to study entry; at intake, four participants reported suicidal ideation in the 2 weeks prior to their baseline visit. During the treatment phase of the study, two participants reported no suicidality. Three participants reported suicidal ideation as treatment began, which lasted between 2 and 6 weeks. […]"}, "[5]": {"conditions": "entry vs week 8, creatine 4 g daily adjunctive to fluoxetine, n=5"}},
  "data": [
    {"compound": "CN(CC(=O)O)C(=N)N.O", "note": "[creatine, creatine monohydrate]", "values": [
      {"measurement": "mean CDRS-R score after eight weeks of treatment", "setting": "[1]; creatine monohydrate 4 g by mouth daily for 8 weeks, adjunctive to fluoxetine, n=5, mean raw score at entry 69", "value": 30.6},
      {"measurement": "decrease of mean CDRS-R raw score", "setting": "[1]; [5]", "value": 56, "unit": "%"},
      {"measurement": "mean reduction in CDRS-R raw score (primary outcome measure)", "setting": "[1]; [5]", "value": 38.4},
      {"measurement": "CDRS-R (Week)", "setting": "[1]; participant 1, week 8, baseline 82, fluoxetine 40 mg", "value": "24 (8)"},
      {"measurement": "CDRS-R (Week)", "setting": "[1]; participant 2, week 8, baseline 76, fluoxetine 40 mg", "value": "44 (8)"},
      {"measurement": "CDRS-R (Week)", "setting": "[1]; participant 3, week 8, baseline 59, fluoxetine 40 mg", "value": "29 (8)"},
      {"measurement": "CDRS-R (Week)", "setting": "[1]; participant 4, week 8, baseline 66, fluoxetine 20 mg", "value": "23 (8)"},
      {"measurement": "CDRS-R (Week)", "setting": "[1]; participant 5, week 8, baseline 62, fluoxetine 40 mg", "value": "33 (8)"},
      {"measurement": "mean CDRS-R raw score at week ten", "setting": "[1]; two weeks after discontinuation of creatine, compared with week 8", "value": "lower than at the conclusion of treatment"},
      {"measurement": "PCr-TP, Mean 8 Weeks", "setting": "[2]; MDD group n=5 after 8 weeks creatine 4 g daily, mean baseline 0.1525, p 0.020 paired t-test", "value": 0.1610},
      {"measurement": "b-NTP/TP, Mean 8 Weeks", "setting": "[2]; MDD group n=5 after 8 weeks creatine, mean baseline 0.125, p 0.729", "value": 0.128},
      {"measurement": "PCr/b-NTP, Mean 8 Weeks", "setting": "[2]; MDD group n=5 after 8 weeks creatine, mean baseline 1.221, p 0.528", "value": 1.270},
      {"measurement": "pH, Mean 8 Weeks", "setting": "[2]; MDD group n=5 after 8 weeks creatine, mean baseline 7.059, p 0.648", "value": 7.071},
      {"measurement": "change in mean PCr/b-NTP ratio", "setting": "[2]; following 8 weeks of treatment", "value": "no change"},
      {"measurement": "change in mean b-NTP", "setting": "[2]; following 8 weeks of treatment", "value": "no change"},
      {"measurement": "change in mean pH", "setting": "[2]; following 8 weeks of treatment", "value": "no change"},
      {"measurement": "change in mean PCr", "setting": "[2]; following 8 weeks of treatment, p=0.020, paired t-test, 2-tailed", "value": "significant increase"},
      {"measurement": "Serious Adverse Events (SAEs)", "setting": "[3]; in vivo", "value": "no Serious Adverse Events"},
      {"measurement": "changes in weight, blood pressure or heart rate", "setting": "[3]; in vivo", "value": "No statistically significant changes"},
      {"measurement": "course of adverse events", "setting": "[3]; in vivo", "value": "self-limited"},
      {"measurement": "microalbuminuria or serum creatinine outside the reference range", "setting": "[3]; in vivo", "value": "No participant developed microalbuminuria or a serum creatinine outside the reference range"},
      {"measurement": "tolerability", "setting": "[3]; in vivo", "value": "well tolerated"},
      {"measurement": "withdrawal due to treatment emergent adverse effects or lack of efficacy", "setting": "[3]; in vivo", "value": "No participant withdrew"},
      {"measurement": "Adverse Events", "setting": "[3]; participant 3, * = possibly or probably related to study drug, monohydrate", "value": "H1N1 influenza*"},
      {"measurement": "duration of suicidal ideation reported as treatment began", "setting": "[4]; in vivo", "value": "2-6 weeks"},
      {"measurement": "outcome of participants' suicidal thoughts", "setting": "[4]; in vivo", "value": "resolved during treatment with creatine and did not recur"},
      {"measurement": "C-SSRS During Treatment With Creatine (Weeks)", "setting": "[4]; participant 3, baseline: wish to be dead 1 week prior to study drug", "value": "Wish to be Dead (1)"},
      {"measurement": "C-SSRS During Treatment With Creatine (Weeks)", "setting": "[4]; participant 4, baseline: wish to be dead 1 week prior to study entry", "value": "Wish to be Dead (1-5)"}
    ]}
  ]
}
